Type in all cases: in vivo
Assay [1] has as its system rats in conflict situation. Put plainly: Conflict situation model of Vogel, ethanol in drinking bowl. To be noted: solution in the drinking bowl, mixture 10:1 volumetric ratio.
Experimental: Anxiolytic effect was evaluated in accordance with the number of punished water intakes.
In assay [2] the test system is patients suffering from definite rheumatoid arthritis (oligoarthritis). Put plainly: Clinical trial in rheumatoid arthritis (oligoarthritis), duration of effect of hydrocortisone injections. To be noted: 20 patients, hydrocortisone 20-25 mg peri- or intra-articular; activated form per os over 8 weeks. The method, then:
Twenty patients suffering from definite rheumatoid arthritis (oligoarthritis) necessitating peri- or intra-articular injections of hydrocortisone were included in the clinical trial of influences of activated form (ultra-low doses) of anti-inflammatory agent—hydrocortisone on the therapeutic activity of hydrocortisone in relation with arthritis manifestations. At baseline all patients required injections of 20-25 mg hydrocortisone 2-3 times a week (up on request). Over 8 weeks patients received activated form of hydrocortisone in ultra-low doses per orally—1 tablet for dissolution in the mouth (activated form—mixture of homeopathic dilutions C12+C30+C200, equivalent concentration 10^−24M mass concentration) together with injections. Impacts of activated form were evaluated in accordance with duration of periods, when patients were independent from hydrocortisone injections.

Assay [3] deals with rats in conflict situation. In words: Conflict situation model of Vogel, phenazepam. The method, then: Anxiolytic activity of phenazepam was studied by conflict situation model of Vogel J., 1971 in rats. Phenazepam was applied in 1) therapeutic dose, 2) activated form or 3) combination of therapeutic dose of phenazepam and activated form of the same medication. Therapeutic doses of Phenazepam (1 mg/kg) were injected intraperitoneally; activated form containing the mixture of homeopathic dilutions C12+C30+C200, was given at 2.5 ml/kg of animal's body weight intraperitoneally; combined treatment included simultaneous injections of both forms in two different syringes. The effect was evaluated after 20 minutes following to medication injections by the quantity of punished water intakes.

The test system of assay [4] is Rat model of adjuvant arthritis. In words: Rat model of adjuvant arthritis (complete Freund's adjuvant), prednisone. To be noted: rats, into the stomach; prednisone 2 mg/kg; activated form D24+D60 2.5mg/kg; combined 10:1. As to the method:
Rat model of adjuvant arthritis induced by single subplantar injection of 100 μl of complete Freund's adjuvant was applied for evaluation of anti-inflammatory activity of glucocorticosteroid agent—prednisone in following treatment choices: a) therapeutic dose, b) activated (potentiated) form (ultra-low dose), c) combined treatment with therapeutic dose and activated form. Soon after the injection of complete Freund's adjuvant animals (10 rats per group) received prednisone in therapeutic dose, in activated form or their combination (control—distilled water)—for 14 days.
2 mg/kg prednisone (water solution) was given into the stomach; activated form of prednisone in ultra-low doses—mixture of homeopathic dilutions D24+D60 was injected in the form of water solution at the dose of 2.5mg/kg of animal's body weight into stomach; both forms mixed at 10:1 ratio were injected at one time during combined treatment.
Severity of inflammatory damage to each extremity (0 to 4) and overall index of arthritis severity (0 to 16) were assessed once per 1-2 days. Functional disturbances, erythema, edema and deformation of extremities were taken into account. Anti-inflammatory efficacy of the medications was evaluated in accordance with reduction of overall index of arthritis severity by the 2-3rd and 14th days of treatment.

The test system of assay [5] is patients suffering from generalized anxiety syndrome. Put plainly: Hamilton's scale of anxiety in patients with generalized anxiety syndrome, diazepam. An excerpt:
Benzodiazepines represent reference medications for the treatment of anxious states. However, application of benzodiazepines is frequently associated with adverse effects that require dose reduction to minimal effective doses. Investigation of impacts induced by ultra-low doses of activated form of diazepam on the anxiolytic activity of therapeutic doses of diazepam was accomplished in 20 patients suffering from generalized anxiety syndrome characterized with the anxiety level consistent with at least 20 grades of Hamilton's scale of anxiety. Patients received tablets containing activated form of diazepam in ultra-low doses (homeopathic dilution C200, equivalent concentration—10^−400M mass concentration)—1 tablet 4 times a day for 14 days. Thereafter, beginning from 15th to 30th day of therapy patients were took per oral diazepam at the dose of 2 mg qid day (daily dose—8 mg) followed by administration of ultra-low doses of activated form of the very medication 4 tablets per day for 7 days and by combined treatment implicating simultaneous intake of activated form (4 tablets a day) and diazepam (8 mg per day) for 14 days. Anxiety level was evaluated by means of Hamilton's scale at baseline and after each stage of therapy.

In the case of `CCO` [Ethanol 10%, ethanol], the “Number of punished water intakes” value in assay [1] is 317.2 ± 41.0.

For `C[C@]12CCC(=O)C=C1CC[C@@H]1[C@@H]2[C@@H](O)C[C@@]2(C)[C@H]1CC[C@]2(O)C(=O)CO` [Hydrocortisone, hydrocortisone], the “Duration effects of injections (time lag between injections "upon request")” value in assay [2] was found to be 2.8 ± 0.3 days.

As for `O=C1CN=C(c2ccccc2Cl)c2cc(Br)ccc2N1` [Phenazepam, phenazepam], the “Number of punished water intakes” value in assay [3] (rats, intraperitoneally, 20 minutes after injection, phenazepam 1 mg/kg, activated form 2.5 ml/kg) amounted to 415.67 ± 113.96. Besides, the “anxiolytic activity (in words)” value in assay [3] (versus control) was “possesses anxiolytic activity”.

With `C[C@]12C=CC(=O)C=C1CC[C@@H]1[C@@H]2C(=O)C[C@@]2(C)[C@H]1CC[C@]2(O)C(=O)CO` [Prednisone, prednisone], in assay [4], the “Arthritis severity index by 14th day of therapy” value turned out to be 5.4 ± 1.7 grades and the “Arthritis severity index by the 2-3rd day of therapy” value is given as 2.1 ± 0.4 grades.

For the molecule `CN1C(=O)CN=C(c2ccccc2)c2cc(Cl)ccc21` [diazepam], the “Overall level of anxiety in accordance with Hamilton's scale” value in assay [5] (20 patients, after the stage of therapy: activated form 2 weeks, then diazepam 8 mg/day, last stage combined 14 days) turned out to be 16.2 ± 2.5 grades. In addition, the improvement versus baseline in assay [5] (Hamilton's scale, after the stage of therapy) is 26%. For the same molecule, the “anxiolytic effect (in words)” value in assay [5] (dynamic changes in anxiety level) is on record as “does not yield achievement of pronounced decline of anxiety”.

The record behind these values is US20070123518A1, “Product designed to protentiate the therapeutic effects and to enhance the action of medicinal preparations” (priority 2003, published 2007).
